Source: patent US8093380B2, “Compounds with the bicyclo[4.2.1]nonane system for the treatment of Flaviviridae infections” (Pharmasset, Inc., priority 2002, dated 2012)
Where a name gives a salt, the structure may show the parent alone.

Legend:
[1] = system: HCV replicon; assay: HCV replicon system in Huh7 cells (real-time RT-PCR of replicon RNA); format: cell-based; details: for ΔCt HCV at 100 μM / EC50: Huh7 replicon cells; for ΔCt HCV at 100 μM: ΔCt of 3.3 = 1-log reduction in replicon production; for EC50: calculated from ΔCt values of dilution series
Protocol: The HCV replicon system in Huh7 cells.
Huh7 cells harboring the HCV replicon were cultivated in DMEM medium (high glucose, no pyruvate), supplemented with 10% fetal bovine serum, 1× non-essential amino acids, Pen-Strep-Glu (100 units/liter, 100 microgram/liter, and 2.92 mg/liter, respectively), and G418 (500 to 1000 microgram/milliliter). Antiviral screening assays were also done in the same medium without G418 as follows. To keep the cells in the logarithmic growth phase, cells were seeded in 96-well plates at low density (for example, 1000 cells per well). The test compound was then added immediately after seeding the cells, and they were incubated for 3 to 7 days at 37° C. in an incubator. The medium was then removed, and the cells were prepared for total RNA extraction (replicon RNA+host RNA). Replicon RNA was then amplified in a real-time RT-PCR (Q-RT-PCR) protocol, and quantified.
In such experiments, a way to express the antiviral effectiveness of a compound is to subtract the average threshold RT-PCR cycle of the negative control (Ctnegative) from the threshold RT-PCR cycle of the test compound (Cttestcompound). This value is called ΔCt (ΔCt=Cttestcompound−Ctnegative). A ΔCt value of 3.3 represents a 1-log reduction in replicon production.
The ΔCt values for each concentration allow the calculation of the 50% effective concentration (EC50).
Compounds were tested for inhibition of HCV RNA replication using the above assay.

[2] = Toxicity in Swiss outbred mice, IP for 6 consecutive days; format: in vivo; details: up to 100 mg/kg
[3] = system: HCV; assay: 14-day oral treatment of chronically HCV-infected chimpanzees, serum HCV viral load by real-time RT-PCR; format: in vivo
Protocol: Based on those toxicity data, a 14-day treatment (oral, QD at 5 mg/kg/day) of chronically HCV-infected chimpanzees was conducted. Viral RNA was extracted from the chronically infected chimpanzees serum samples in quadruplicate and the viral RNA pellets were dissolved in RNAse-free water. Subsequently, these RNA samples were amplified by real-time RT-PCR (Applied Biosystems, Foster City, Calif.) for the presence and quantity of the HCV nucleic acids. Primers and probes for HCV were designed using Primer Express (Applied Biosystems). Further details on the methodology will be published (Stuyver et al., 2002; manuscript submitted to Antimicrob. Agents Chemother.).
The results are expressed relative to the viral load in the pretreatment sample. Calculation of the viral load for each sample was based on 4 independent measurements of threshold RT-PCR cycles (Ct values). Mean±SD were calculated for each day's sample. The latter were used to express the observed viral load changes.
Two chimpanzees [Joseph (5.14 log10 IU/ml HCV) and Heppie (5.69 log10 IU/ml HCV)] were treated orally for 14 days with 5 mg/kg/day. The viral load changes that were observed are summarized below (FIG. 1): • 1. […] The viral load remained suppressed with a mean of 0.43 log10 IU/ml up to day 14.

[4] = system: human cell lines; assay: Toxicity in several human cell lines; format: cell-based
[5] = Oral and IV administration to rhesus monkeys; format: in vivo; details: 20 mg/kg
[6] = Hematology and blood chemistry in treated chimpanzees; format: in vivo
Protocol: Hematology and blood chemistry report. The day 0 and day 14 samples were analyzed for hematological and blood chemistry parameters. Essentially, no changes in the baseline and after treatment samples were observed.

[7] = system: HCV; details: ribavirin alone; cited from earlier work

Compound | ΔCt HCV at 100 μM [1] | EC50 ([1]; Hepatitis C virus, Huh-7) [µM] | further results
O=c1c(Cl)cc2nnn3c2n1[C@@H]1O[C@H](C3)C(O)C1O (stereo partly drawn) [71 (X = Cl), 3,5% Cyclo-6-chloro-4-(β-D-ribofuranosyl)-vic-triazolo[4,5-b]pyridin-5-one] | 6.0 | < 0.7 | –
O=c1ccc2nnn3c2n1[C@H]1CC(O)[C@@H](C3)O1 (stereo partly shown) [83 (Y = H, Z = CH)] | 5.1 | < 6 | –
O=c1ccc2nnn3c2n1[C@@H]1O[C@H](C3)C(O)C1O (stereo partly drawn) [15 (Y = H, Z = CH), 9,5′-Cyclo-3-(β-D-ribofuranosyl)-1-deaza-8-azapurine-2-one] | 4.48 | 20 | toxicity [2]: no toxicity was apparent; death or significant weight loss ([2]; 28 day monitoring): None of the mice died or lost significant weight; reduction in viral load ([3]; day 4, 5 mg/kg/day QD, in words): significant reduction; maximal drop in HCV viral load ([3]; day 4, chimpanzee Heppie, oral 5 mg/kg/day QD): 0.8 log10 IU/ml; maximal drop in HCV viral load ([3]; day 4, chimpanzee Joseph, oral 5 mg/kg/day QD): 0.5 log10 IU/ml; maximal drop in HCV viral load, mean for both animals ([3]; day 4, mean of both chimpanzees, oral 5 mg/kg/day QD): 0.67 log10 IU/ml; viral load changes ([3]; up to 24 hr after administration of the first dose, oral 5 mg/kg/day): No viral load changes were observed; viral load suppression, mean ([3]; up to day 14, oral 5 mg/kg/day QD): 0.43 log10 IU/ml; toxicity in several human cell lines [4]: practically no toxicity; in vitro antiviral activity against HCV ([1]; in words): demonstrated in vitro antiviral activity against HCV; untoward effects ([5]; IV administration): Neither oral administration nor IV administration to rhesus monkeys at 20 mg/kg caused any untoward effects; untoward effects ([5]; oral administration): Neither oral administration nor IV administration to rhesus monkeys at 20 mg/kg caused any untoward effects; changes in hematological and blood chemistry parameters ([6]; day 0 versus day 14; oral 5 mg/kg/day; Z=CH), 5 mg/kg/day): No change; hematological and blood chemistry parameters relative to normal range ([6]; throughout the study): remained in the normal range
O=c1[nH]c(=O)n2c3c1nnn3C[C@H]1O[C@@H]2C(O)C1O (stereo partly shown) [Compound 65, 9,5′-Cyclo-carba-8-azaxanthosine] | 2.4 | – | –
O=c1[nH]c(=S)c2nnn3c2n1[C@@H]1O[C@H](C3)C(O)C1O (stereo partly shown) [15 (Y = SH, Z = N)] | 3.61 | < 6 | –
CN(C)c1nc(=O)n2c3c1nnn3C[C@H]1O[C@@H]2C(O)C1O (stereo partly drawn) [75 (R = R′ = Me), 9,5′-Cyclo-3-(β-D-ribofuranosyl)-6-dimethylamino-8-azaxanthine] | 2.4 | – | –
CC1(C)OC2C(O1)[C@H]1Cn3nnc4c(=S)[nH]c(=O)n(c43)[C@@H]2O1 (stereo partly shown) [73 (Y = SH)] | 4.1 | 25 | –
Nc1cc(=O)n2c3c1nnn3C[C@H]1O[C@@H]2C(O)C1O (stereo partly drawn) [72 (R = R′ = H), 7-Amino-3,5′-cyclo-4-(β-D-ribofuranosyl)-vic-triazolo[4,5-b]pyridin-5-one] | 5.7 | 4.5 | –
O=c1[nH]c(=O)n2c3c1nnn3CC1OC2C(O)C1O [15 (Y = OH, Z = N), 9,5′Cyclo-3-(β-D-ribofuranosyl)-8-azaxanthine] | 6.3 | – | EC50 [1]: < 10 µM
Nc1nc(=O)n2c3c1nnn3C[C@H]1O[C@@H]2C(O)C1O (stereo partly drawn) [75 (R = R′ = H), 9,5′-Cyclo-3-(β-D-ribofuranosyl)-6-amino-8-azapurine-2-one hydrochloride] | 5.3 | 0.7 | –
C/N=c1/[nH]c(=O)n2c3c1nnn3C[C@H]1O[C@@H]2C(O)C1O (stereo partly drawn) [75 (R = Me, R′ = H), 9,5′-Cyclo-3-(β-D-ribofuranosyl)-6-methylamino-8-azaxanthine] | 6.4 | < 6 | –
O=c1[nH]c(=O)n2c3c1ncn3C[C@H]1O[C@@H]2C(O)C1O (stereo partly drawn) [Compound 35, 5′,9-Cyclo-3-(β-D-ribofuranosyl)xanthine] | 6.0 | 4 | –
O=c1ncc2nnn3c2n1[C@@H]1O[C@H](C3)C(O)C1O (stereo partly shown) [15 (Y = H, Z = N)] | 3.6 | < 10 | –
O=c1[nH]c(=O)n2c3c1nnn3C[C@H]1O[C@@H]2C(O)C1O (stereo partly drawn) [83 (Y = OH, Z = N), 9,5% Cyclo-3-(2′-deoxy-β-D-erythropentofuranosyl)-8-azaxanthine] | 2.1 | 60 | –
CO/N=c1/[nH]c(=O)n2c3c1nnn3C[C@H]1O[C@@H]2C(O)C1O (stereo partly drawn) [75 (R = OMe, R′ = H), 9,5′-Cyclo-3-(β-D-ribofuranosyl)-6-methoxylamino-8-azaxanthine] | 6.5 | < 5 | –
CNc1nc(=O)n2c3c1nnn3C[C@H]1O[C@@H]2C(O)C1O (stereo partly drawn) [72 (R = H, R′ = Me), 3,5′-Cyclo-7-methylamino-4-(β-D-ribofuranosyl)-vic-triazolo[4,5-b]pyridin-5-one] | 6.6 | < 1 | –
Cl.Nc1nc(=O)n2c3c1ncn3C[C@H]1O[C@@H]2C(O)C1O (stereo partly drawn) [Compound 27, 6-Amino-5′,9-cyclo-3-(β-D-ribofuranosyl)-2-oxo-purine HCl salt] | 6.6 | < 3 | –
Cn1c(=O)c2nnn3c2n(c1=O)[C@@H]1O[C@H](C3)C(O)C1O (stereo partly drawn) [77 (R = CH3), 9,5′-Cyclo-1-methyl-3-(β-D-ribofuranosyl)-8-azaxanthine] | 5.9 | 0.4 | –
O=c1ccc2nnn3c2n1[C@@H]1O[C@H](C3)C2OC(=S)OC21 (stereo partly shown) [82 (Y = H, Z = CH)] | 2.6 | – | –
O=c1c(Br)cc2nnn3c2n1[C@@H]1O[C@H](C3)C(O)C1O (stereo partly drawn) [71 (X = Br), 3,5′-Cyclo-6-bromo-4-(β-D-ribofuranosyl)-vic-triazolo[4,5-b]pyridin-5-one] | 5.9 | < 1 | –
N#CCn1c(=O)c2nnn3c2n(c1=O)[C@@H]1O[C@H](C3)C(O)C1O (stereo partly drawn) [77 (R = CH2CN), 1-Cyanomethyl-9,5′-cyclo-3-(β-D-ribofuranosyl)-8-azaxanthine] | 4.7 | < 6 | –
O=c1[nH]c(=O)n2c3c1nnn3C[C@H]1O[C@@H]2C2OC(=S)OC21 (stereo partly drawn) [82 (Y = OH, Z = N), 9,5′-Cyclo-3-(2′,3′O-thiocarbonyl-β-D-ribofuranosyl)-8-azaxanthine] | 4.7 | 12 | –
OC1C(O)[C@H]2Cn3nnc4ccc(=S)n(c43)[C@@H]1O2 (stereo partly drawn) [Compound 70, 3,5% Cyclo-4-(β-D-ribofuranosyl)-vic-triazolo[4,5-b]pyridin-5-thione] | 7.0 | 1 | –
NC(=O)c1ncn([C@@H]2O[C@H](CO)[C@@H](O)[C@H]2O)n1 [Ribavirin, 1-β-D-ribofuranosyl-1H-1,2,4-triazole-3-carboxamide] | – | – | patients in whom serum amino transferase levels are reduced to normal [7]: 40%
